Key:
IMC-1 (IL-2 20 ng/mL) [1] = experiment: percent inhibition of viability; higher = more inhibition; conditions: 72 h
[2] = test system: normal primary NK cells, pool 3 (3 donors) (IL-2 2.5 ng/mL); experiment: as above; conditions: 72 h
NKL (IL-2 2.5 ng/mL) [3] = experiment: as above; conditions: 72 h
SNK-6 (IL-2 2.5 ng/mL) [4] = experiment: as above; conditions: 72 h
KAI3 (IL-2 2.5 ng/mL) [5] = experiment: as above; conditions: 72 h
[6] = test system: normal primary NK cells, pool 2 (3 donors) (IL-2 2.5 ng/mL); experiment: as above; conditions: 72 h
[7] = test system: normal primary NK cells, pool 1 (3 donors), resting (IL-2 0 ng/mL); experiment: as above; conditions: 72 h
NK-YS (IL-2 2.5 ng/mL) [8] = experiment: as above; conditions: 72 h
YT (IL-2 2.5 ng/mL) [9] = experiment: as above; conditions: 72 h
[10] = test system: normal primary NK cells, pool 1 (3 donors) (IL-2 2.5 ng/mL); experiment: as above; conditions: 72 h
DERL-7 (IL-2 2.5 ng/mL) [11] = experiment: as above; conditions: 72 h
KHYG-1 (IL-2 2.5 ng/mL) [12] = experiment: as above; conditions: 72 h
NK-92 (IL-2 2.5 ng/mL) [13] = experiment: as above; conditions: 72 h
[14] = test system: normal NK cells expanded with K562-aAPC; experiment: drug sensitivity score (DSS) (DSS units); higher = more sensitive; extreme values may be limits of the assay; conditions: 72 h; IL-2 2.5 ng/mL
Method: (§1)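 Drug sensitivity and resistance testing on K562-aAPC-expanded normal NK cells: 5 concentrations (10-fold steps over a 10,000-fold range), 72 h at 37 °C, viability by CellTiter-Glo normalised to DMSO and benzethonium chloride controls; DSS from the fitted curve.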

[15] = test system: normal NK cells expanded with K562-aAPC; experiment: percent inhibition of viability; higher = more inhibition; conditions: 72 h, IL-2 2.5 ng/mL
Method: as §1

IMC-1 (IL-2 20 ng/mL) [16] = experiment: drug sensitivity score (DSS) (DSS units); higher = more sensitive; extreme values may be limits of the assay; conditions: 72 h
[17] = test system: normal primary NK cells, pool 3 (3 donors) (IL-2 2.5 ng/mL); experiment: as above; conditions: 72 h
NKL (IL-2 2.5 ng/mL) [18] = experiment: as above; conditions: 72 h
SNK-6 (IL-2 2.5 ng/mL) [19] = experiment: as above; conditions: 72 h
KAI3 (IL-2 2.5 ng/mL) [20] = experiment: as above; conditions: 72 h
[21] = test system: normal primary NK cells, pool 2 (3 donors) (IL-2 2.5 ng/mL); experiment: as above; conditions: 72 h
[22] = test system: normal primary NK cells, pool 1 (3 donors), resting (IL-2 0 ng/mL); experiment: as above; conditions: 72 h
NK-YS (IL-2 2.5 ng/mL) [23] = experiment: as above; conditions: 72 h
YT (IL-2 2.5 ng/mL) [24] = experiment: as above; conditions: 72 h
[25] = test system: normal primary NK cells, pool 1 (3 donors) (IL-2 2.5 ng/mL); experiment: as above; conditions: 72 h
DERL-7 (IL-2 2.5 ng/mL) [26] = experiment: as above; conditions: 72 h
KHYG-1 (IL-2 2.5 ng/mL) [27] = experiment: as above; conditions: 72 h
NK-92 (IL-2 2.5 ng/mL) [28] = experiment: as above; conditions: 72 h

Cc1ccc(F)c(NC(=O)Nc2ccc(-c3cccc4[nH]nc(N)c34)cc2)c1 [Linifanib] (max concentration tested 1000 nM)
percent inhibition of viability [%]
Conditions | 0.1 nM | 1 nM | 10 nM | 100 nM | 1000 nM
DERL-7 (IL-2 2.5 ng/mL) [11] | -3.48 | 1.81 | 3.09 | 2.4 | -1.99
IMC-1 (IL-2 20 ng/mL) [1] | -6.64 | -7.44 | -3.21 | -3.37 | 1.06
KAI3 (IL-2 2.5 ng/mL) [5] | -0.03 | -0.25 | -3.05 | 7.49 | 15.8
KHYG-1 (IL-2 2.5 ng/mL) [12] | -6.67 | -7.43 | -4.03 | -0.13 | 5.26
NK-92 (IL-2 2.5 ng/mL) [13] | -24.1 | -23.8 | -13.7 | -0.86 | 25.2
NK-YS (IL-2 2.5 ng/mL) [8] | -6.27 | -8.05 | -4.24 | 4.76 | 5.97
NKL (IL-2 2.5 ng/mL) [3] | -6.64 | -0.61 | 0.44 | 14.6 | 17.6
SNK-6 (IL-2 2.5 ng/mL) [4] | -2.9 | 19.3 | 2.79 | -3.57 | -1.81
YT (IL-2 2.5 ng/mL) [9] | -5.45 | -5.75 | -1.04 | 3.95 | 7.04
[2] | -14.8 | -8.58 | 1.59 | 7.84 | 2.88
[6] | -14 | -8.34 | -3.37 | 7.22 | 4.22
[7] | -0.38 | 0.34 | 17.6 | 14.6 | 9.36
[10] | -6.2 | 0.66 | 14.2 | 7.19 | 6.85
[15] | -6.15 | -1.69 | -7.22 | -1.27 | 8.03

Conditions | drug sensitivity score
DERL-7 (IL-2 2.5 ng/mL) [26] | 0
IMC-1 (IL-2 20 ng/mL) [16] | 0
KAI3 (IL-2 2.5 ng/mL) [20] | 0.91
KHYG-1 (IL-2 2.5 ng/mL) [27] | 0
NK-92 (IL-2 2.5 ng/mL) [28] | 0.9
NK-YS (IL-2 2.5 ng/mL) [23] | 0
NKL (IL-2 2.5 ng/mL) [18] | 1.69
SNK-6 (IL-2 2.5 ng/mL) [19] | 0
YT (IL-2 2.5 ng/mL) [24] | 0
[14] | 0
[17] | 0
[21] | 0
[22] | 3.83
[25] | 0.05

Cc1cc(C)c(CNC(=O)c2cc(-c3ccc(CN4CCOCC4)cc3)cc3c2cnn3C2CCCC2)c(=O)[nH]1 [EPZ-5687] (max concentration tested 10000 nM)
percent inhibition of viability [%]
Conditions | 1 nM | 10 nM | 100 nM | 1000 nM | 10000 nM
DERL-7 (IL-2 2.5 ng/mL) [11] | -1.37 | 6.73 | -10.3 | -3.14 | 3.39
IMC-1 (IL-2 20 ng/mL) [1] | -4.92 | -2.89 | -1.1 | -3.52 | -3.58
KAI3 (IL-2 2.5 ng/mL) [5] | 1.34 | -2.83 | 3.75 | -1.27 | -8.91
KHYG-1 (IL-2 2.5 ng/mL) [12] | -5.28 | 1.66 | -5.39 | -4.15 | -3.04
NK-92 (IL-2 2.5 ng/mL) [13] | -18.6 | -17.5 | -11.1 | -7.12 | -16.9
NK-YS (IL-2 2.5 ng/mL) [8] | -6.64 | -3.26 | -5.52 | -1.38 | 4.13
NKL (IL-2 2.5 ng/mL) [3] | -7.92 | -9.21 | -9.03 | -6.87 | -4.34
SNK-6 (IL-2 2.5 ng/mL) [4] | -3.6 | 10.5 | -5.25 | -4.13 | -15.8
YT (IL-2 2.5 ng/mL) [9] | -2.28 | -2.31 | -4.1 | 0.78 | -1.43
[2] | -6.45 | -1.35 | -6.34 | -4.92 | -4.19
[6] | -10.3 | -5.37 | -0.75 | -12.1 | -3.82
[7] | -3.8 | -2.57 | 0.76 | 26.6 | 18.2
[10] | -2.66 | -3.34 | -7.26 | -0.16 | 1.72
[15] | -0.71 | -3.48 | -3.69 | -2.2 | 0.02

Conditions | drug sensitivity score
DERL-7 (IL-2 2.5 ng/mL) [26] | 0
IMC-1 (IL-2 20 ng/mL) [16] | 0
KAI3 (IL-2 2.5 ng/mL) [20] | 0
KHYG-1 (IL-2 2.5 ng/mL) [27] | 0
NK-92 (IL-2 2.5 ng/mL) [28] | 0
NK-YS (IL-2 2.5 ng/mL) [23] | 0
NKL (IL-2 2.5 ng/mL) [18] | 0
SNK-6 (IL-2 2.5 ng/mL) [19] | 0
YT (IL-2 2.5 ng/mL) [24] | 0
[14] | 0
[17] | 0
[21] | 0
[22] | 4.36
[25] | 0
